Measured values taken from publication PMC13107563 (Protein & Cell, 2025).
pEC50: −log10 of the molar value. No end group written: not given here.

How the values were obtained:
[1] = biological target: T1, NPFFR2 (WT) (Homo sapiens, UniProt Q9Y5X5); experiment: GloSensor cAMP accumulation assay, WT NPFFR2 (Gi signaling); assay type: cell-based; details: WT NPFFR2 (reference, 100 %WT), three independent experiments in triplicates
T1 construct: expressed in transfected cells; host or cells: HEK293T (described for NPFFR1 only)
T1 sequence (Q9Y5X5 103-522): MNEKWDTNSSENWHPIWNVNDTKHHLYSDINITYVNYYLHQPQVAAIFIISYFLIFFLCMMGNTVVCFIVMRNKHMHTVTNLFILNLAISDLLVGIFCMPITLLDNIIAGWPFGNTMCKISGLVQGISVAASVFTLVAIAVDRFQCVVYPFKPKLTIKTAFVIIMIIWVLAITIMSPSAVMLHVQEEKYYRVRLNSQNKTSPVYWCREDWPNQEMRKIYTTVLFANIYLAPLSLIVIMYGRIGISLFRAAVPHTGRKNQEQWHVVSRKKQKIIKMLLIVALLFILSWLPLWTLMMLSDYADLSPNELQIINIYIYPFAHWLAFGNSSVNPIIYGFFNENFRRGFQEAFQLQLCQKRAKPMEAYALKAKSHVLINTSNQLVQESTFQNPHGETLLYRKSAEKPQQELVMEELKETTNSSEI

[2] = biological target: T2, NPFFR2 T220A (Homo sapiens, UniProt Q9Y5X5, T322A); experiment: GloSensor cAMP accumulation assay, NPFFR2 T220A; assay type: cell-based; details: Gi signaling, three independent experiments in triplicates
T2 construct: expressed in transfected cells; host or cells: HEK293T (described for NPFFR1 only)
T2 sequence (Q9Y5X5 103-522 T322A): as the sequence (Q9Y5X5 103-522) above, with T220A counted along it

[3] = system: NPFFR1 / NPFFR2; details: NPFFR1 vs NPFFR2; ref Quillet et al., 2016; cited from earlier work
From the text: NPFFR1 primarily couples to inhibitory Gi/o proteins and regulates di ...

CC(C)C[C@H](NC(=O)[C@H](CC(N)=O)NC(=O)[C@@H]1CCCN1C(=O)[C@@H](N)C(C)C)C(=O)N1CCC[C@H]1C(=O)N[C@@H](CCC(N)=O)C(=O)N[C@@H](CCCNC(=N)N)C(=O)N[C@@H](Cc1ccccc1)C(N)=O [RFRP-3, RF-amide related peptide-3]
Emax [1]: 100%
pEC50 [2]: < 4.52

Neuropeptide AF (AGEGLNSQFWSLAAPQRF; ends and bridges not checked; UniProt O15130 93-110, looked up) [NPAF, peptide derived from pro-NPFFA]
receptor preference [3]: prefer binding to NPFFR2
